How the values were obtained:
[1] = biological target: T1, cloned human H3 receptors (Homo sapiens, UniProt Q9Y5N1); assay: H3 Receptor Binding (Human); conditions: cloned human H3 receptors stably expressed in SK-N-MC cells; average of results
T1 construct: expressed in transfected cells; host or cells: SK-N-MC cells
Description: Binding of compounds to the cloned human H3 receptors, stably expressed in SK-N-MC cells, was performed as described by Barbier, A. J. et al. (Br. J. Pharmacol. 2004, 143(5), 649-661). Data for compounds tested in this assay are presented in Table 1, as an average of results obtained.

[2] = biological target: T2, rat H3 receptor (rat brain membranes) (Rattus norvegicus, UniProt Q9QYN8); assay: H3 Receptor Binding (Rat); conditions: rat brain membranes without cerebellum; 0.8 nM N-[3H]-α-methylhistamine; 60 min at 25° C.
T2 construct: A rat brain without cerebellum (Zivic Laboratories Inc., Pittsburgh, Pa.) was homogenized; tissue Zivic Laboratories Inc; host or cells: rat brain without cerebellum, membranes
T2 sequence (Q9QYN8 whole entry): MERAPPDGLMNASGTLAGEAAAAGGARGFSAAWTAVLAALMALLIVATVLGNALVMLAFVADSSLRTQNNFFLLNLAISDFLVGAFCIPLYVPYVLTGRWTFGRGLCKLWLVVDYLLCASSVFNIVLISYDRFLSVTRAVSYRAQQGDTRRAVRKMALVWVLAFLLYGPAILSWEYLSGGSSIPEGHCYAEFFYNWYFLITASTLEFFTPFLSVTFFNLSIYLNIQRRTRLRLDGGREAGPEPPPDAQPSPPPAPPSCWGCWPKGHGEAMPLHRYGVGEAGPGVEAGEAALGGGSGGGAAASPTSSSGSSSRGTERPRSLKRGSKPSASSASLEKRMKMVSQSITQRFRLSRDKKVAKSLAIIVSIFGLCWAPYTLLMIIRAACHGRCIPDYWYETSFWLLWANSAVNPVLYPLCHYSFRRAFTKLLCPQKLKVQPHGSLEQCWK
Description: A rat brain without cerebellum (Zivic Laboratories Inc., Pittsburgh, Pa.) was homogenized in 50 mM Tris-HCl/5 mM EDTA and centrifuged at 1,000 rpm for 5 min. The supernatant was removed and recentrifuged at 15,000 rpm for 30 min. Pellets were rehomogenized in 50 mM Tris/5 mM EDTA (pH 7.4). Membranes were incubated with 0.8 nM N-[^3H]-α-methylhistamine plus/minus test compounds for 60 min at 25° C. and harvested by rapid filtration over GF/C glass fiber filters (pretreated with 0.3% polyethylenimine) followed by four washes with buffer. Nonspecific binding was defined in the presence of 100 μM histamine. Inhibitory concentration (responsible for 50% inhibition of maximal effect, IC50) values were determined by a single site curve-fitting program (GraphPad, San Diego, Calif.) and converted to Ki values based on a N-[^3H]-α-methylhistamine dissociation constant (Kd) of 0.8 nM. The following results were obtained: Example 2, 34 nM; Example 3, 33 nM; Example 4,18 nM; Example 5, 9.2 nM.

human H3 receptor = biological target: T3, human H3 receptor (Homo sapiens, UniProt Q9Y5N1); assay: Cyclic AMP Accumulation (human H3); assay type: cell-based; conditions: SK-N-MC cells expressing reporter construct and human H3 receptor; read-out: Human pA2 (converted)
T3 construct: expressed in transfected cells; host or cells: SK-N-MC cell sublines
T3 sequence (Q9Y5N1 whole entry): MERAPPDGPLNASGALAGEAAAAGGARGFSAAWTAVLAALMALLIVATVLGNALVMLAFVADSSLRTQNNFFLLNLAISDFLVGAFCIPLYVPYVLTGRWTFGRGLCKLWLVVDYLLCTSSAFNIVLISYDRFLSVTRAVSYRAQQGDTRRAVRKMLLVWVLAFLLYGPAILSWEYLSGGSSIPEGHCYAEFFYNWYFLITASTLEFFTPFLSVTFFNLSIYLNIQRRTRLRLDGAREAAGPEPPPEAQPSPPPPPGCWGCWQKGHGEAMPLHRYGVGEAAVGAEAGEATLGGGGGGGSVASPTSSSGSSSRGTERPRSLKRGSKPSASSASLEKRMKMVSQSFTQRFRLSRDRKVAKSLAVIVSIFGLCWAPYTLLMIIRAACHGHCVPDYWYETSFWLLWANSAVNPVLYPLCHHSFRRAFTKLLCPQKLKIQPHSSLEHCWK
Text: (§1) Sublines of SK-N-MC cells were created that expressed a reporter construct and either the human or rat H3 receptor. The pA2 values were obtained as described by Barbier et al. (2004).

rat H3 receptor = biological target: T4, rat H3 receptor (Rattus norvegicus, UniProt Q9QYN8); assay: Cyclic AMP Accumulation (rat H3); assay type: cell-based; conditions: SK-N-MC cells expressing reporter construct and rat H3 receptor; read-out: Rat pA2 (converted)
T4 construct: expressed in transfected cells; host or cells: SK-N-MC cell sublines
T4 sequence (Q9QYN8 whole entry): as the sequence (Q9QYN8 whole entry) above
Text: as §1

T1 sequence (Q9Y5N1 whole entry): as the sequence (Q9Y5N1 whole entry) above

Row | Structure (SMILES) | Ki [1] [nM] | Ki [2] [nM] | Kb (human H3 receptor) [nM] | Kb (rat H3 receptor) [nM]
1 | O=C(c1cnc(Oc2ccc(Cl)cc2)cn1)N1CCN(C2CCC2)CC1 [Example 8, [5-(4-Chloro-phenoxy)-pyrazin-2-yl]-(4-cyclobutyl-piperazin-1-yl)-methanone] | 38 |  |  | 
2 | N#Cc1cccc(Oc2cnc(C(=O)N3CCCN(C4CCC4)CC3)cn2)c1 [Example 5, 3-[5-(4-Cyclobutyl-[1,4]diazepane-1-carbonyl)-pyrazin-2-yloxy]-benzonitrile] | 1.5 | 9.2 |  | 
3 | O=C(c1cnc(Oc2ccc(Cl)cc2)cn1)N1CCCN(C2CCC2)CC1 [Example 3, [5-(4-Chloro-phenoxy)-pyrazin-2-yl]-(4-cyclobutyl-[1,4]diazepan-1-yl)-methanone] | 3.7 | 33 | 1.2 | 12.6
4 | N#Cc1cccc(Oc2cnc(C(=O)N3CCN(C4CCC4)CC3)cn2)c1 [Example 10, 3-[5-(4-Cyclobutyl-piperazine-1-carbonyl)-pyrazin-2-yloxy]-benzonitrile] | 28 |  |  | 
5 | O=C(c1cnc(Oc2ccccc2)cn1)N1CCN(C2CCC2)CC1 [Example 7, (4-Cyclobutyl-piperazin-1-yl)-(5-phenoxy-pyrazin-2-yl)-methanone] | 36 |  |  | 

More lines, in order of falling Ki [1], values ahead:

Row | Ki [1] [nM] | Ki [2] [nM] | Kb (human H3 receptor) [nM] | Kb (rat H3 receptor) [nM] | Structure (SMILES)
6 | 51 |  |  |  | O=C(c1cnc(OC2CCCCC2)cn1)N1CCN(C2CCC2)CC1 [Example 12, (4-Cyclobutyl-piperazin-1-yl)-(5-cyclohexyloxy-pyrazin-2-yl)-methanone]
7 | 37 |  |  |  | O=C(c1cnc(Oc2cccc(F)c2)cn1)N1CCN(C2CCC2)CC1 [Example 9, (4-Cyclobutyl-piperazin-1-yl)-[5-(3-fluoro-phenoxy)-pyrazin-2-yl]-methanone]
8 | 19 |  |  |  | O=C(c1cnc(Oc2ccc(F)cc2)cn1)N1CCN(C2CCC2)CC1 [Example 6, (4-Cyclobutyl-piperazin-1-yl)-[5-(4-fluoro-phenoxy)-pyrazin-2-yl]-methanone]
9 | 3.2 |  | 0.525 | 9.55 | O=C(c1cnc(OC2CCCCC2)cn1)N1CCCN(C2CCC2)CC1 [Example 11, (4-Cyclobutyl-[1,4]diazepan-1-yl)-(5-cyclohexyloxy-pyrazin-2-yl)-methanone]
10 | 2.9 | 34 |  |  | O=C(c1cnc(Oc2ccccc2)cn1)N1CCCN(C2CCC2)CC1 [Example 2, (4-Cyclobutyl-[1,4]diazepan-1-yl)-(5-phenoxy-pyrazin-2-yl)-methanone]
11 | 2.6 | 18 | 0.537 | 6.92 | O=C(c1cnc(Oc2cccc(F)c2)cn1)N1CCCN(C2CCC2)CC1 [Example 4, (4-Cyclobutyl-[1,4]diazepan-1-yl)-[5-(3-fluoro-phenoxy)-pyrazin-2-yl]-methanone]
12 | 2.4 |  | 0.871 | 13.5 | O=C(c1cnc(Oc2ccc(F)cc2)cn1)N1CCCN(C2CCC2)CC1 [Example 1, (4-Cyclobutyl-[1,4]diazepan-1-yl)-[5-(4-fluoro-phenoxy)-pyrazin-2-yl]-methanone]

Source: patent US20090131416A1, “SUBSTITUTED PYRAZINYL AMIDE COMPOUNDS AS MODULATORS OF THE HISTAMINE H3 RECEPTOR” (priority 2007, published 2009)
